The values that follow come from patent US20080009470A1, “Acremonic Acid Derivatives” (priority 2003, published 2008).

By MIC is commonly meant the smallest concentration in the dilution series that meets the test's criterion for growth inhibition. Higher therefore signals weaker potency. One may read the MIC90 as an inhibitory concentration at the 90% level, which refers to growth in some studies and to a panel of isolates in others. What is called MIC50 is the lowest concentration that inhibits either 50% of growth or 50% of the strains tested, depending on the study.

Several values for one entry are separate records, joined by “and”; a condition that tells them apart may be missing. Equal entries are not always repeated.

Assay [1] has as its system Enterococcus faecalis isolates. Description: MIC, Agar Dilution / Micro Dilution Test (NCCLS). It is filed as cell-based. To be noted: n=2. From the text: (§1) E.g., the compounds of the present invention show antimicrobial, e.g. antibacterial activity against gram positive bacteria and gram negative, such as Staphylococcus, e.g. S. aureus, MRSA (Methicillin Resistant S. aureus), MSSA (Methicillin Sensitive S. aureus), Enterococcus, e.g. E. faecalis, E. faecium, Moraxella, e.g. M. catarrhalis, in vitro in the Agar Dilution Test and/or Micro Dilution Test for bacteria according to National Committee for Clinical Laboratory Standards (NCCLS) 1993, • Document M7-A4, Vol. 20, No. 2, 2000: “Methods for dilution Antimicrobial Susceptibility Tests for Bacteria that Grow Aerobically”—Third Edition, Approved Standard”; and • Document M26-A, Vo. 19, No. 18, 1999: Methods for determining antibactericidal activity of antimicrobial agents, • Document M11-A3 for anaerobic bacteria, • in a concentration from about 0.1 to ca. 25.6 μg/ml, e.g. using strains including Staphylococcus aureus (ATCC 29213 and ATCC 29506); Enterococcus faecalis ATCC 29212; • and in vivo in the septicaemia mouse model, in accordance to the method description Nr. 159 A-5, approved by Austrian Health Authorities (MA 58, no. 2968/95 of Oct. 12, 1995), e.g. when administered at dosages from 0.05 to 50 mg/kg body weight.
(§2) Furthermore, the compound of example 1 is active against mupirocin-resistant staphylococci (n=26) with MICs below 0.5 μg/ml (range ≦0.125-0.5 μg/ml). Moraxella catarrhalis isolates (n=2) are inhibited at MICs of 0.2 and 0.4 μg/ml. The MICs for Enterococcus faecalis isolates (n=2) are 6.4 μg/ml and 12.8 μg/ml.
A general note: Agar dilution tests growth on a series of plates holding different concentrations.

Another assay has as its system Enterococcus faecium. Description: MIC, Agar Dilution / Micro Dilution Test (NCCLS). The assay is classed as cell-based. To be noted: n=1.
From the text: as §1, §2

Assay [2] has as its system Moraxella catarrhalis isolates. Description: MIC, Agar Dilution / Micro Dilution Test (NCCLS). It is filed as cell-based. To be noted: n=2.
From the text: as §1, §2

For assay [3], the system named is methicillin-sensitive Staphylococcus aureus (MSSA) strains. Description: MIC, Agar Dilution / Micro Dilution Test (NCCLS). It is filed as cell-based. To be noted: n=26, e.g. in the form of its sodium salt.
From the text: as §1, §2

Assay [4] has as its system mupirocin-resistant staphylococci. Kind of assay: MIC, Agar Dilution / Micro Dilution Test (NCCLS). It is filed as cell-based. To be noted: n=26.
From the text: as §1, §2

The subject of assay [5] is methicillin-resistant S. aureus (MRSA) strains. Description: MIC, Agar Dilution / Micro Dilution Test (NCCLS). It is filed as cell-based, Staphylococcus aureus. To be noted: e.g. in the form of its sodium salt. The source says: E.g., the compounds of the present invention show antimicrobial, e.g. antibacterial activity against gram positive bacteria and gram negative, such as Staphylococcus, e.g. S. aureus, MRSA (Methicillin Resistant S. aureus), MSSA (Methicillin Sensitive S. aureus), Enterococcus, e.g. E. faecalis, E. faecium, Moraxella, e.g. M. catarrhalis, in vitro in the Agar Dilution Test and/or Micro Dilution Test for bacteria according to National Committee for Clinical Laboratory Standards (NCCLS) 1993, • Document M7-A4, Vol. 20, No. 2, 2000: “Methods for dilution Antimicrobial Susceptibility Tests for Bacteria that Grow Aerobically”—Third Edition, Approved Standard”; and • Document M26-A, Vo. 19, No. 18, 1999: Methods for determining antibactericidal activity of antimicrobial agents, • Document M11-A3 for anaerobic bacteria, • in a concentration from about 0.1 to ca. 25.6 μg/ml, e.g. using strains including Staphylococcus aureus (ATCC 29213 and ATCC 29506); Enterococcus faecalis ATCC 29212; • and in vivo in the septicaemia mouse model, in accordance to the method description Nr. […]
The compound of example 1 is a preferred compound of the present invention. It has, for example been determined that the minimum inhibitory concentration, e.g. MIC90 (μg/ml), of the compound of Example 1, e.g. in the form of its sodium salt, against, for example S. aureus (MRSA) is of about 0.2.

In assay [6] the test system is S. aureus B29 (clinical isolate, MRSA). Description: septicaemia mouse model. It is filed as in vivo. To be noted: mice, survival on day 5, Probit analysis, e.g. sodium salt.
From the text: as §1
(§3) The ED50 values are calculated by Probit analysis of the administered dosages of compounds. Activity is determined by numbers of surviving animals per group of 8 or 6 mice, respectively, per dosage unit on day 5 after infection.

The subject of assay [7] is Staphylococcus aureus (ATCC 49951, MSSA). Description: septicaemia mouse model. It is filed as in vivo. To be noted: mice, treated orally 1 and 4 hours after infection; survival on day 5; Probit analysis; e.g. sodium salt; ranging from 5.54 to 13.34.
From the text: as §1, §3

For “6-O-(2′-fluoroisobutyryl)-24, 25-dihydro-acremonic acid [Example 1]”, the MICs in assay [1] is 6.4 µg/mL and 12.8 µg/mL; in assay [2] it was 0.2 µg/mL and 0.4 µg/mL; in assay [4], “below 0.5 μg/ml”. In addition, the MIC against Enterococcus faecium was determined as 6.4 µg/mL. The MIC90 in assay [3] was 0.25 µg/mL; in assay [5] (S. aureus (MRSA)), “about 0.2 μg/ml”. This substance also displayed an MIC range in assay [4] of 0.125 to 0.5 µg/mL. For the same substance, the MIC50 in assay [5] (MRSA strains, n=26) amounted to 0.2 µg/mL. The ED50 entry is given as “ca. 6.65 mg/kg body weight” in assay [6] (treated orally 1 and 4 hours after infection, ranging from 4.25 to 11.98); “ca. 3.20 mg/kg body weight” in assay [6] (treated subcutaneously 1 and 4 hours after infection, ranging from 1.93 to 5.85); “ca. 8.55 mg/kg body weight” in assay [7].
